Source: patent US20140272041A1, “METHODS OF REDUCING PATHOGENS DURING PROCESSING OR POST-PROCESSING OF BEEF, POULTRY AND OTHER MEAT PRODUCTS” (BIRKO Corporation, priority 2009, published 2014)

Columns and labels:
Format in all cases: cell-based, Escherichia coli
[1] = system: E. coli SAC-2; assay: Log kill / surviving titer in aqueous bacterial suspension, plating on TSA; details: for Log Kill (Lactic Acid + Surfactant): surfactant 0.2% in 2.5% lactic acid; for Log Kill (TSA): lactic acid alone, plated on TSA
Protocol: In each instance a target sample was employed using approximately 50 micro liters of an SAC-2 culture. E. coli “SAC-2,” was a Gram-negative strain isolated from municipal sewage. The tests were performed at room temperature, i.e., 75 deg. F. […] The results of each test sample were evaluated using a series of 10-fold dilutions as needed to determine, on a standard plating agar (TSA), the titer of bacteria that survived the antimicrobial treatment.
The same procedure was employed as in Example 2, but the only agent added to the target solution was Niaproof 08. No lactic acid was employed.
The mixture was then diluted and plated as previously described.
Increasing amounts of reagent were added to a series of test tubes. […] The bacterial titer of each mixture was determined by preparation and plating of serial dilutions on TSA.
[…] […] The amphoteric and zwitterionic surfactants, which carry a net positive charge under the conditions of the reaction mixture, caused enhancement of the log kill by lactic acid. All anionic surfactants tested caused substantial enhancement of the log kill by lactic acid.

[2] = system: E. coli ATCC 12435; assay: as above; details: for Log Kill (Lactic Acid + Surfactant): 15 seconds, 74 to 80 degrees F.; for Log Kill (TSA): lactic acid alone, plated on TSA
Protocol: The “reaction” (i.e. interaction of antimicrobial agent and the target organism) was initiated by the addition of bacteria to the antimicrobial solution. The reaction was allowed to proceed for the respective time periods listed in Table I (i.e., at least 15 seconds each) and was terminated at the end of that time by adding quench buffer comprising 3.2 M potassium phosphate buffer, pH 7.2. The sample then was evaluated using serial 10-fold dilutions into sterile phosphate buffer as needed to determine, on Tryptic Soy agar (“TSA”), the titer of surviving bacteria. TSA is a medium that allows the growth of most bacteria.
The reduction in the bacterial count is expressed as the “log kill” which is defined as log10 [initial cfu/ml]−log10 [remaining cfu/ml]; where “cfu” refers to “colony forming unit.” All log kills reported herein are positive “base 10.”). Inasmuch as the standard assay mixture contained only ca. 25×10^6 cfu initially (equivalent to 7.398 log) the theoretical maximum kill that can be measured with this assay system is ca. 7.4 log and the practical measuring limit is ca. 6 log. Therefore, high levels of log reduction were monitored by plating reaction mixtures directly (without dilution) onto agar medium. The results are reported in Table I and illustrated in graph format in FIG. 1. […] The tests were replicated with E. coli ATCC 43888, a pathogenic strain of E. coli O157:H7. […]
After incubation for 15 seconds at ambient temperature the reaction was quenched by addition of phosphate buffer and the titer of surviving bacteria was determined by plating on TSA as described in the previous examples. […] The amphoteric and zwitterionic surfactants, which carry a net positive charge under the conditions of the reaction mixture, caused enhancement of the log kill by lactic acid. All anionic surfactants tested caused substantial enhancement of the log kill by lactic acid.

[3] = system: E. coli ATCC 43888 (O157:H7); assay: Log kill in aqueous bacterial suspension, plating on TSA; details: for Lactic Acid (Log Kill): 2.5% lactic acid, 73 deg. F.; for Log Kill: lactic acid alone, ca. 75 deg. F., TSA
[4] = system: E. coli ATCC 14235; assay: as above; details: lactic acid alone, ca. 75 deg. F.
Protocol: The tests were performed at ambient temperature (ca. 75 deg. F.). The “reaction” (i.e. interaction of antimicrobial agent and the target organism) was initiated by the addition of bacteria to the antimicrobial solution. The reaction was allowed to proceed for the respective time periods listed in Table I (i.e., at least 15 seconds each) and was terminated at the end of that time by adding quench buffer comprising 3.2 M potassium phosphate buffer, pH 7.2. The sample then was evaluated using serial 10-fold dilutions into sterile phosphate buffer as needed to determine, on Tryptic Soy agar (“TSA”), the titer of surviving bacteria. TSA is a medium that allows the growth of most bacteria.
The reduction in the bacterial count is expressed as the “log kill” which is defined as log10 [initial cfu/ml]−log10 [remaining cfu/ml]; where “cfu” refers to “colony forming unit.” All log kills reported herein are positive “base 10.”). Inasmuch as the standard assay mixture contained only ca. 25×10^6 cfu initially (equivalent to 7.398 log) the theoretical maximum kill that can be measured with this assay system is ca. 7.4 log and the practical measuring limit is ca. 6 log. Therefore, high levels of log reduction were monitored by plating reaction mixtures directly (without dilution) onto agar medium. The results are reported in Table I and illustrated in graph format in FIG. 1. […] The tests were replicated with E. coli ATCC 43888, a pathogenic strain of E. coli O157:H7.

[5] = system: E. coli ATTC 12435; assay: Lactic acid treatment followed by contact with surfactant (bile salts) on VRBA; details: quenched, then plated on VRBA (bile salts, neutral pH)
Protocol: (§1) VRBA was designed for the enumeration of coliform bacteria by selecting against most other common bacteria. The principal difference between TSA and VRBA—besides the presence of indicator dyes in VRBA—is the inclusion of bile salts in the VRBA. Historically, bile salts were added to media used to culture intestinal bacteria in order to mimic the intestinal environment more closely. Bile salts also happen to be anionic surfactants.
(§2) Plating of serial dilutions of E. coli SAC-2 made in dilute phosphate buffer (pH 7.2) on VRBA was completed in less than 15 minutes after termination of individual reaction mixtures by addition of quench buffer (phosphate, pH 7.2). Thus, contact with the surfactant in VRBA was made in less than 15 minutes and more than 8 minutes after reaction termination.
The observations were confirmed with E. coli ATTC 12435 as follows: […]

[6] = system: E. coli SAC-2; assay: as above; details: quenched, then plated on VRBA (bile salts, neutral pH)
Protocol: as §1, §2

[7] = system: E. coli ATCC 43888; assay: Reaction mixture streak plate, visual observation; details: 2.5 wt. % lactic acid only (Niaproof 08 0), room temperature
Protocol: The tests were performed at room temperature.

[8] = 15 seconds, 74 to 80 degrees F.
[9] = surfactant 0.2% in 2.5% lactic acid
[10] = 2.5 wt. % lactic acid only (Niaproof 08 0.00)

## phosphate ester of polyoxyalkylated fatty alcohol [Klearfac AA270]
[1]; [8]
  Log Kill (Lactic Acid + Surfactant): 2.56 log
[2]; [9]
  Log Kill (Lactic Acid + Surfactant): 6.31 log

## CC(O)C(=O)O (centres unmarked) [Lactic Acid, lactic acid, reference compound]
[1]; 2.5% lactic acid only, paired control of the surfactant in that line, 15 seconds, 74 to 80 degrees F.
  Log Kill (Lactic Acid): 0.083 log
[1]; [10]
  Enhancement Factor (log10 kill with lactic acid and surfactant divided by log10 kill with lactic acid only): 1.00
[1]; 2.5 wt. % lactic acid only (Niaproof 08 0.00), 15 seconds, room temperature
  Log Kill: 0.456 log
[1]; […] lactic acid only (Niaproof 08 0.00), 15 seconds, 75 degrees F.
  Log Kill […] Lactic Acid: 0.336 log
[1]; 15 secs
  Log Kill (TSA): 0.188 log
[1]; 30 secs
  Log Kill (TSA): 0.439 log
[1]; 45 secs
  Log Kill (TSA): 0.801 log
[3]; 2.5% lactic acid only (sodium lauryl sulfate 0)
  in 2.5% Lactic Acid (Log Kill): 2.2 log
[3]; pH 2.19, 20 secs.
  Lactic Acid (Log Kill): 2.44 log
[3]; pH 2.42, 20 secs.
  Lactic Acid (Log Kill): 2.71 log
[3]; pH 2.59, 20 secs.
  Lactic Acid (Log Kill): 1.81 log
[3]; pH 2.74, 20 secs.
  Lactic Acid (Log Kill): 1.21 log
[3]; pH 2.86, 20 secs.
  Lactic Acid (Log Kill): 0.732 log
[3]; pH 3.24, 20 secs.
  Lactic Acid (Log Kill): 0.117 log
[3]; pH 3.67, 20 secs.
  Lactic Acid (Log Kill): 0.041 log
[3]; […] lactic acid only (sodium lauryl sulfate 0), 15 seconds, 75 degrees F.
  in […] Lactic Acid (Log Kill): 0.403 log
[3]; 15 secs
  Log Kill: 1.24 log
[3]; 30 secs
  Log Kill: 1.76 log
[3]; 45 secs
  Log Kill: 1.89 log
[3]; 60 secs
  Log Kill: 2.63 log
[2]; 2.5% lactic acid only, paired control of Niaproof 08, 15 seconds, 83 degrees F.
  Log Kill (Lactic Acid): 2.28 log
[2]; [10]
  Enhancement Factor: 1.0
  Log Kill: 2.283 log
[2]; 15 secs
  Log Kill (TSA): 1.431 log
[2]; 30 secs
  Log Kill (TSA): 2.217 log
[2]; 45 secs
  Log Kill (TSA): 3.246 log
[2]; 60 secs
  Log Kill (TSA): 3.722 log
[4]; 15 secs
  Log Kill: 1.431 log
[4]; 30 secs
  Log Kill: 2.217 log
[4]; 45 secs
  Log Kill: 3.246 log
[4]; 60 secs
  Log Kill: 3.722 log
[5]; lactic acid 15 secs
  Log Kill (VRBA): 5.328 log
[5]; lactic acid 30 secs
  Log Kill (VRBA): 5.328 log
[5]; lactic acid 45 secs
  Log Kill (VRBA): 5.328 log
[5]; lactic acid 60 secs
  Log Kill (VRBA): 5.328 log
[6]; lactic acid 15 secs
  Log Kill (VRBA): 0.509 log
[6]; lactic acid 30 secs
  Log Kill (VRBA): 2.812 log
[6]; lactic acid 45 secs
  Log Kill (VRBA): 3.330 log
[7]
  Description/Observation: Extensive bacterial growth.

## CCCCCCCCS(=O)(=O)[O-].[Na+] [Bioterge PAS-8S, sodium octane sulfonate]
[2]; [9]
  Log Kill (Lactic Acid + Surfactant): 6.31 log

## CCCCC(CC)COC(=O)CC(C(=O)OCC(CC)CCCC)S(=O)(=O)[O-].[Na+] (centres unmarked) [Sodium dioctyl sulfosuccinate]
[2]; [9]
  Log Kill (Lactic Acid + Surfactant): 6.67 log

## ethoxylated nonylphenol [T-Det N 9.5]
[1]; [8]
  Log Kill (Lactic Acid + Surfactant): 0.18 log

## coconut based imidazoline, dicarboxylate, sodium salt [Amphoterge K2]
[2]; [9]
  Log Kill (Lactic Acid + Surfactant): 2.86 log

## coco amidoalkyl betaine [Norfox CAPB]
[2]; 0.1% CAPB in 2.5% lactic acid
  Log Kill (Lactic Acid + Surfactant): 6.25 log

## Polyoxyethylene (20) sorbitan monooleate [Tween 80]
[1]; [8]
  Log Kill (Lactic Acid + Surfactant): 0.18 log
